Activity calls are given as the source filed them. The rule behind the calls is not given here.
Key:
RPMI-8226 [1] = assay: Induction of cell cycle arrest in human RPMI-8226 cells assessed as proportion of cells at G2/M phase at 2.5 uM incubated for 24 hrs by PI staining based flow cytometry (reference value: 19.8%); format: functional
RPMI-8226 [2] = assay: Antitumor activity against human RPMI-8226 cells xenografted in NCG mouse assessed as T/C ratio at 50 ug administered intratumorally every 2 days by vernier caliper analysis; format: functional; settings: dose 50 µg; route it(Intratumoral)
RPMI-8226 [3] = assay: Induction of apoptosis in human RPMI-8226 cells assessed as proportion of late apoptotic cells at 0.5 uM incubated for 24 hrs by AnnexinV-FITC/PI staining based flow cytometry (reference value: 4.18%); format: functional, cell-based
RPMI-8226 [4] = assay: Induction of apoptosis in human RPMI-8226 cells assessed as proportion of early apoptotic cells at 0.5 uM incubated for 24 hrs by AnnexinV-FITC/PI staining based flow cytometry (reference value: 10.63%); format: functional, cell-based
RPMI-8226 [5] = assay: Induction of apoptosis in human RPMI-8226 cells assessed as proportion of necrotic cells at 0.5 uM incubated for 24 hrs by AnnexinV-FITC/PI staining based flow cytometry (reference value: 0.49%); format: functional, cell-based
RPMI-8226 [6] = assay: Antiproliferative activity against human RPMI-8226 cells assessed as inhibition of cell proliferation incubated for 48 hrs by CCK8 assay; format: functional, cell-based; settings: RPMI-8226, 48 h
RPMI-8226 [7] = assay: Induction of cell cycle arrest in human RPMI-8226 cells assessed as proportion of cells at S phase at 2.5 uM incubated for 24 hrs by PI staining based flow cytometry (reference value: 46.7%); format: functional
RPMI-8226 [8] = assay: Induction of apoptosis in human RPMI-8226 cells assessed as proportion of necrotic cells at 2.5 uM incubated for 24 hrs by AnnexinV-FITC/PI staining based flow cytometry (reference value: 0.49%); format: functional, cell-based
MM1.S = assay: Antiproliferative activity against human MM1.S cells assessed as inhibition of cell proliferation incubated for 48 hrs by CCK8 assay; format: functional, cell-based
[9] = Cytotoxicity against human L02 cells assessed as inhibition of cell proliferation incubated for 48 hrs by CCK8 assay; format: toxicity, cell-based
RPMI-8226 [10] = assay: Antitumor activity against human RPMI-8226 cells xenografted in NCG mouse assessed as tumor growth inhibition at 50 ug administered intratumorally every 2 days by vernier caliper analysis; format: functional; settings: dose 50 µg; route it(Intratumoral)
[11] = Toxicity in NCG mouse xenografted with human RPMI-8226 cells assessed as weakness at 50 ug administered intratumorally every 2 days; settings: in vivo, other, 48 h, route it(Intratumoral), dose 50 µg
[12] = Toxicity in NCG mouse xenografted with human RPMI-8226 cells assessed as body weight loss at 50 ug administered intratumorally every 2 days; settings: in vivo, other, 48 h, route it(Intratumoral), dose 50 µg
U-266 = assay: Antiproliferative activity against human U-266 cells assessed as inhibition of cell proliferation incubated for 48 hrs by CCK8 assay; format: functional, cell-based; settings: U-266, 48 h
RPMI-8226 [13] = assay: Induction of apoptosis in human RPMI-8226 cells assessed as proportion of late apoptotic cells at 2.5 uM incubated for 24 hrs by AnnexinV-FITC/PI staining based flow cytometry (reference value: 4.18%); format: functional, cell-based
[14] = Toxicity in NCG mouse xenografted with human RPMI-8226 cells assessed as animal's death at 50 ug administered intratumorally every 2 days; settings: in vivo, other, 48 h, route it(Intratumoral), dose 50 µg
RPMI-8226 [15] = assay: Induction of cell cycle arrest in human RPMI-8226 cells assessed as proportion of cells at G1 phase at 2.5 uM incubated for 24 hrs by PI staining based flow cytometry (reference value: 33.5%); format: functional
RPMI-8226 [16] = assay: Induction of apoptosis in human RPMI-8226 cells assessed as proportion of viable cells at 2.5 uM incubated for 24 hrs by AnnexinV-FITC/PI staining based flow cytometry (reference value: 84.71%); format: functional, cell-based
RPMI-8226 [17] = assay: Induction of apoptosis in human RPMI-8226 cells assessed as proportion of early apoptotic cells at 2.5 uM incubated for 24 hrs by AnnexinV-FITC/PI staining based flow cytometry (reference value: 10.63%); format: functional, cell-based
RPMI-8226 [18] = assay: Induction of apoptosis in human RPMI-8226 cells assessed as proportion of viable cells at 0.5 uM incubated for 24 hrs by AnnexinV-FITC/PI staining based flow cytometry (reference value: 84.71%); format: functional, cell-based

Question: What does the source list for `O=C(CCCCCCNC(=O)c1cnc(N(c2ccccc2)c2ccccc2Cl)nc1)NO` [CITARINOSTAT]?
Answer: Activity (RPMI-8226 [1]): 22.6%; T/C (RPMI-8226 [2]): 61%; Activity (RPMI-8226 [3]): Active; Activity (RPMI-8226 [4]): Active; Activity (RPMI-8226 [5]): Active; IC50 (RPMI-8226 [6]): 3.5 µM; Activity (RPMI-8226 [7]): 44.7%; Activity (RPMI-8226 [8]): Active; IC50 (MM1.S): 2 µM; IC50 at 48 h [9]: 15.2 µM; TGI (RPMI-8226 [10]): 46%; Activity [11]: Toxic; Activity [12]: Non-Toxic; IC50 (U-266): 4.3 µM; Activity (RPMI-8226 [13]): Active; Activity [14]: Toxic; Activity (RPMI-8226 [15]): 32.7%; Activity (RPMI-8226 [16]): Active; Activity (RPMI-8226 [17]): Active; Activity (RPMI-8226 [18]): Active

From ChEMBL document CHEMBL5346971, “Discovery of the First Irreversible HDAC6 Isoform Selective Inhibitor with Potent Anti-Multiple Myeloma Activity” (J Med Chem, 2023)
